Assay results from patent EP0437336B1, “Biophosphoryl hydrazines and their use as pesticides” (priority 1990, dated 1991).
Converted amounts (≈) assume the structure as drawn. Read-outs that look alike come from different tables or passages of the source.

What was measured:
[1] = system: Two-Spotted Spider Mite; assay: Biological Method D: Foliar Insecticidal Activity Test, mite test; format: in vivo, Tetranychus urticae; parameters: key to LC50 TSM: I = inactive at concentration listed; conditions: for LC50: Tetranychus urticae
Description: (§1) Biological Method D: Foliar Insecticidal Activity Test
(§2) In evaluating the foliar insecticidal activity of the compounds of this invention against insects and mites, the following test procedures were employed.
(§3) Not all compounds were tested at each of the several concentrations stated above. Test concentrations of a compound were selected as those most likely to differentiate dose response of a particular compound toward a particular test insect.
(§4) Initial evaluations were made on one or more of the following pests:
For the mite test, infested bean (Phaseolus limensis var. Woods Prolific) leaf discs [3.18 cm (1.25") in diameter] containing about 50 mites were placed in a Petri dish lid on a moistened piece of cotton. The leaves were then sprayed to thorough wetness with the test solution using a rotating turntable, held for twenty-four hours and then the percentage killed was determined.
(§5) The mortalities obtained in this manner were plotted on logarithmic probability paper.
(§6) The rotating turntable consists of a fixed, continuously operating spray nozzle under which targets are rotated at a fixed speed and distance. If the target is a Petri dish (such as for the bean beetle, armyworm, mite, or aphid tests), the distance from the nozzle is 38.1 cm (15 inches). If the target is a Mason jar (such as for the boll weevil test), the distance from the nozzle is 17.8 cm (7 inches). The nozzle is located 8 inches from the rotating shaft. The targets on individual platforms revolve around the shaft at 1 revolution per 20 seconds but only a brief portion of this time occurs in the spray path. Targets pass only once under the nozzle and then are removed to drying hoods.
(§7) The nozzle used is a 1/4 JCO Spraying Systems (Wheaton, Illinois) air atomizing nozzle equipped with a No. 2850 fluid cap and a No. 70 air cap. At the 68.95 x 10³ Pa gauge (10 psig) air pressure used and with liquid siphon feed, 1.89 ℓ/hr [0.5 GPH (gallons per hour)] are delivered in a round spray pattern with a 21 degree spray angle. Targets are misted with spray droplets to the point that the droplets coalesce to form a uniform thin film insufficient to drown test organisms.

[2] = system: Green Peach Aphid; assay: Biological Method D: Foliar Insecticidal Activity Test, aphid test; format: in vivo, Myzus persicae; parameters: key: I = inactive at concentration listed
Description: as §1, §2, §3, §4
(§8) For the aphid test, infested broccoli (Brassica oleracea italica var. DiCicco) leaves containing about 50 aphids were placed in a Petri dish lid on a moistened piece of cotton. The leaves were then sprayed to thorough wetness with the test solution using a rotating turntable, held for twenty-four hours and then the percentage killed was determined.
as §5, §6, §7

[3] = system: Southern Armyworm; assay: Biological Method D: Foliar Insecticidal Activity Test, Southern Armyworm test; format: in vivo, Spodoptera eridania; parameters: key: I = inactive at concentration listed
Description: as §1, §2, §3, §4
(§9) For the Mexican Bean Beetle and Southern armyworm tests, individual lima bean (Phaseolus limeniss var. Woods' Prolific) leaves were placed on moistened pieces of filter paper in Petri dishes. The leaves were then sprayed with the test solution using a rotating turntable and allowed to dry. The dishes were then infested with 10 third instar larvae of either the Mexican Been Beetle or the Southern Armyworm. The dishes were then covered. Percent mortality was determined for each species and spray concentration at 48 and 96 hours after treatment.
as §5, §6, §7

[4] = system: Boll Weevil; assay: Biological Method D: Foliar Insecticidal Activity Test, boll weevil test; format: in vivo, Anthonomous grandis; parameters: key: I = inactive at concentration listed
Description: as §1, §2, §3, §4
(§10) For the boll weevil test, 10 adult weevils were placed in a 0.24 ℓ (0.5 pint) glass Mason jar containing a small cube of apple. The weevils were confined to the jar by fiberglass screen mesh secured by a screw-type rim cap. The jars were then sprayed with the test solution using a rotating turntable; directing the spray through the mesh into the jar. The percentage killed was determined after forty-eight and ninety six hours.
as §5, §6, §7

[5] = system: southern corn rootworm, Diabrotica undecimpunctata howardi; conditions: for pest or weed control at 560 g/ha: Diabrotica undecimpunctata, in Zea mays, foliar, 336 h, read-out: foliar systemic nonagressive Method B crw % control at 0.56 kg/ha (0.5 lb/acre)
[6] = system: southern corn rootworm, Diabrotica undecimpunctata howardi; assay: Biological Method A: Corn Rootworm Screening Test (treated non-aggressive soil); conditions: soil concentration giving 90% mortality, 10 days at 27°C
[7] = system: Mexican Bean Beetle; assay: Biological Method D: Foliar Insecticidal Activity Test, Mexican Bean Beetle test; format: in vivo, Epilachna varivestis; conditions: Epilachna varivestis
Description: as §1, §2, §3, §4, §9, §5, §6, §7

[8] = system: Green Peach Aphid; assay: Biological Method D: Foliar Insecticidal Activity Test, aphid test; format: in vivo, Myzus persicae; conditions: foliar spray; kill after twenty-four hours
Description: as §1, §2, §3, §4, §8, §5, §6, §7

[9] = system: Southern Armyworm; assay: Biological Method D: Foliar Insecticidal Activity Test, Southern Armyworm test; format: in vivo, Spodoptera eridania; conditions: foliar spray; for AW 48 hrs LC50: 48 hours after treatment; for AW 96 hrs LC50: 96 hours after treatment
Description: as §1, §2, §3, §4, §9, §5, §6, §7

[10] = system: Boll Weevil; assay: Biological Method D: Foliar Insecticidal Activity Test, boll weevil test; format: in vivo, Anthonomous grandis; conditions: spray into jar
Description: as §1, §2, §3, §4, §10, §5, §6, §7

[11] = system: southern corn rootworm, Diabrotica undecimpunctata howardi; conditions: at-planting soil application
[12] = Method D foliar test, Two-Spotted Spider Mite, read-out: LC50 TSM
[13] = Method D foliar test, Mexican Bean Beetle, 48 hrs, read-out: LC50 BB 48 hrs.
[14] = Method D foliar test, Mexican Bean Beetle, 96 hrs, read-out: LC50 BB 96 hrs
[15] = Method D foliar test, Two-Spotted Spider Mite
[16] = foliar spray, kill after twenty-four hours
[17] = foliar spray, 96 hours after treatment, read-out: BB 96 hrs LC50
[18] = foliar spray, 48 hours after treatment, read-out: BB 48 hrs. LC50

Compound | LC50 GPA [2] | LC50 AW 48 hrs [3] | LC50 AW 96 hrs [3] | LC50 BW 48 hrs [4] | LC50 BW 96 hrs [4] | primary nonagressive Method A crw LC90 [6] [ppm] | LC50 [7, 13] [µg/mL] | LC50 [7, 14] [µg/mL] | pest or weed control at 560 g/ha [5] [%] | TSM LC50 [1, 16] | GPA LC50 [8] | LC50 [7, 17] [µg/mL] | AW 48 hrs LC50 [9] | AW 96 hrs LC50 [9] | BW 48 hrs LC50 [10] | BW 96 hrs LC50 [10] | secondary aggressive Method C crw LC50 ([11]; rated 17 days post-infestation) [kg/ha] | secondary aggressive Method C crw LC50 ([11]; value in brackets) [lb/acre] | LC50 [7, 18] [µg/mL] | also measured
CCCCOP(=S)(NNP(=S)(OCC)OCC)OCC (stereo not drawn) [Compound 7] | I | I | I | I | I | 0.25 |  |  |  |  |  |  |  |  |  |  |  |  |  | LC50 [1, 12]: 150 µg/mL (≈ 412 µM); foliar systemic nonagressive Method B crw % control at 0.56 kg/ha (0.5 lb/acre) ([5]; percent control relative to infested check, from root damage ratings, 14 days post-spraying): 38%
CCOP(=S)(NNP(=S)(OCC)OC(C)(C(F)(F)F)C(F)(F)F)OCC (stereo not drawn) [Compound 39] | I | I | I | I | I | 0.71 | 31 (≈ 65.6 µM) | 150 (≈ 318 µM) | 46 |  |  |  |  |  |  |  |  |  |  | LC50 [1, 12]: 150 µg/mL (≈ 318 µM)
CCOP(=S)(NNP(=S)(OCC)O[C@H]1C[C@@H](C)CC[C@@H]1C(C)C)OCC (stereo partly drawn) [Compound 35] | I | I | I | I | I | 0.77 | 250 (≈ 560 µM) | 52 (≈ 116 µM) | 38 |  |  |  |  |  |  |  |  |  |  | LC50 TSM [1, 15]: I
CCOP(=S)(NNP(=S)(OCC)OCC(C)C)OCC(C)C (stereo not drawn) [Compound 66, reference compound] |  |  |  |  |  | 0.09 |  |  |  | I | I | 150 (≈ 382 µM) | I | I | I | I | ~1.91 | ~1.7 |  | 
CCOP(=S)(NNP(=S)(OCC)OC(C)C(F)(F)F)OCC (stereo not drawn) [Compound 15] | I | I | I | I | I | <0.1 | 150 (≈ 371 µM) | 62 (≈ 153 µM) | 54 |  |  |  |  |  |  |  |  |  |  | LC50 TSM [1, 15]: I
CCCCNP(=S)(NNP(=S)(OCC)OCC)OCC (stereo not drawn) [Compound 74] |  |  |  |  |  | 1.1 |  |  |  | I | I | 380 (≈ 1050 µM) | I | I | I | I | 1.03 | 0.92 | 740 (≈ 2040 µM) | 
CCOP(=S)(NNP(=S)(OCC)OC(C)CC)OC(C)CC (stereo not drawn) [Compound 65, N-(O-ethyl O-secbutylthiophosphoryl) N′-(O-ethyl O-secbutylthiophosphoryl) hydrazine, reference compound] |  |  |  |  |  | 0.09 |  |  |  |  | I | 62 (≈ 158 µM) | I | I | I | I | 0.44 | 0.39 | 360 (≈ 917 µM) | LC50 ([1]; 24 h, foliar spray, kill after twenty-four hours, read-out: TSM LC50): 245 µg/mL (≈ 624 µM)
CCCOP(=S)(NNP(=S)(OCC)OC(C)C)OCCC (stereo not drawn) [Compound 82] |  |  |  |  |  | 0.7 |  |  |  | I | I | 150 (≈ 396 µM) | I |  |  |  | 0.95 | 0.85 | 500 (≈ 1320 µM) | 
